Tested on: 3D7-MR4 trophozoite parasite-infected RBCs
Assay: Metabolomic profiling (hydrophilic metabolite changes, UHPLC-MS)
Type: cell-based, Plasmodium falciparum

CC(C)(C)NCc1cc(Nc2ccnc3cc(Cl)ccc23)c2c(c1O)CCCC2 [Naphtoquine, Naphthoquine, reference compound]
changes within the set of metabolites detected (low fold change group) (10 × IC50^72h, 2.5 hr, trophozoites): did not induce major changes
Log2(fold changes) 1_3-Bisphosphoglyceric acid (metabolite 1_3-Bisphosphoglyceric acid, log2 fold change): 0.0605
Log2(fold changes) 2-Hydroxy-2-methylbutanedioic acid (metabolite 2-Hydroxy-2-methylbutanedioic acid, log2 fold change): 0.0920
Log2(fold changes) 2-Isopropylmalic acid (metabolite 2-Isopropylmalic acid, log2 fold change): 0.0000
Log2(fold changes) 2-dehydro-D-gluconate (metabolite 2-dehydro-D-gluconate, log2 fold change): -0.0605
Log2(fold changes) 2-oxo-4-methylthiobutanoate (metabolite 2-oxo-4-methylthiobutanoate, log2 fold change): 0.0000
Log2(fold changes) 2_3-Diphosphoglyceric acid (metabolite 2_3-Diphosphoglyceric acid, log2 fold change): 0.0000
Log2(fold changes) 3-phosphoglycerate (metabolite 3-phosphoglycerate, log2 fold change): 0.2077
Log2(fold changes) 3-phosphoserine (metabolite 3-phosphoserine, log2 fold change): -0.0700
Log2(fold changes) 4-Pyridoxic acid (metabolite 4-Pyridoxic acid, log2 fold change): 0.2073
Log2(fold changes) 4-aminobutyrate (metabolite 4-aminobutyrate, log2 fold change): 0.0263
Log2(fold changes) 4-phosphopantetheine (metabolite 4-phosphopantetheine, log2 fold change): 0.0000
Log2(fold changes) 4-phosphopantothenate (metabolite 4-phosphopantothenate, log2 fold change): -0.0475
Log2(fold changes) 5-aminopentanoic acid (metabolite 5-aminopentanoic acid, log2 fold change): 0.0000
Log2(fold changes) 5-methyl-THF (metabolite 5-methyl-THF, log2 fold change): 0.0000
Log2(fold changes) 5-phosphoribosyl-1-pyrophosphate (metabolite 5-phosphoribosyl-1-pyrophosphate, log2 fold change): 0.0000
Log2(fold changes) 6-phospho-D-gluconate (metabolite 6-phospho-D-gluconate, log2 fold change): 0.1085
Log2(fold changes) ADP-D-glucose (metabolite ADP-D-glucose, log2 fold change): 0.0398
Log2(fold changes) Acetyl-glycine (metabolite Acetyl-glycine, log2 fold change): 0.0000
Log2(fold changes) Acetyllysine (metabolite Acetyllysine, log2 fold change): -0.1423
Log2(fold changes) Aminoadipic acid (metabolite Aminoadipic acid, log2 fold change): 0.0000
Log2(fold changes) CDP (metabolite CDP, log2 fold change): -0.5923
Log2(fold changes) CDP-choline (metabolite CDP-choline, log2 fold change): -0.0652
Log2(fold changes) CDP-ethanolamine (metabolite CDP-ethanolamine, log2 fold change): -0.0101
Log2(fold change) of CMP (metabolite CMP): -0.1194
Log2(fold change) of CTP (metabolite CTP): 0.1369
Log2(fold changes) Citraconic acid (metabolite Citraconic acid, log2 fold change): 0.0000
Log2(fold change) of D-glucarate (metabolite D-glucarate): 0.1211
Log2(fold change) of D-gluconate (metabolite D-gluconate): 0.1168
Log2(fold change) of D-glucosamine-1/6-phosphate (metabolite D-glucosamine-1/6-phosphate): 0.0000
Log2(fold change) of D-sedoheptulose-1/7-phosphate (metabolite D-sedoheptulose-1/7-phosphate): -0.1410
Log2(fold change) of DL-Pipecolic Acid (metabolite DL-Pipecolic Acid): 0.1435
Log2(fold change) of DLH (metabolite DLH): 0.3114
Log2(fold change) of DLS (metabolite DLS): 0.0979
Log2(fold change) of Decanoyl-CoA (metabolite Decanoyl-CoA): 0.0000
Log2(fold change) of EV (metabolite EV): -0.1292
Log2(fold change) of FAD (metabolite FAD): 0.0352
Log2(fold change) of FMN (metabolite FMN): 0.1758
Log2(fold change) of G3P/DHAP (metabolite G3P/DHAP): 0.0000
Log2(fold change) of GDP (metabolite GDP): -0.5345
Log2(fold change) GMP (metabolite GMP): 0.0470
Log2(fold change) GTP (metabolite GTP): 0.0942
Log2(fold change) HVDD (metabolite HVDD): 0.0000
Log2(fold change) Hexose (metabolite Hexose): 0.0000
Log2(fold change) Hydroxyisocaproic acid (metabolite Hydroxyisocaproic acid): 0.0000
Log2(fold change) IDP (metabolite IDP): 0.0737
Log2(fold change) IMP (metabolite IMP): -0.0394
Log2(fold change) Inositol (metabolite Inositol): 0.0000
Log2(fold change) Isopentyl-PP (metabolite Isopentyl-PP): 0.0000
Log2(fold change) L-arginino-succinate (metabolite L-arginino-succinate): -0.0233
Log2(fold change) LD (metabolite LD): 0.1467
Log2(fold change) Myristoyl/tetradecanoyl-CoA (metabolite Myristoyl/tetradecanoyl-CoA): 0.0252
Log2(fold change) N-Acetyl-L-alanine (metabolite N-Acetyl-L-alanine): 0.1261
Log2(fold change) N-acetyl-L-ornithine (metabolite N-acetyl-L-ornithine): -0.0214
Log2(fold change) N-acetyl-glucosamine-1/6-phosphate (metabolite N-acetyl-glucosamine-1/6-phosphate): 0.0000
Log2(fold change) N-acetyl-glutamate (metabolite N-acetyl-glutamate): 0.0412
Log2(fold change) N-acetyl-glutamine (metabolite N-acetyl-glutamine): 0.0000
Log2(fold change) N-carbamoyl-L-aspartate (metabolite N-carbamoyl-L-aspartate): 0.0625
Log2(fold change) NAD+ (metabolite NAD+): -0.0154
Log2(fold change) NADH (metabolite NADH): 0.0000
Log2(fold change) NADP+ (metabolite NADP+): 0.0692
Log2(fold change) NADPH (metabolite NADPH): -0.1981
Log2(fold change) O-acetyl-L-serine (metabolite O-acetyl-L-serine): 0.0000
Log2(fold change) Octoluse 8/1P (metabolite Octoluse 8/1P): -0.0241
Log2(fold change) Octoluse Bisphosphate (metabolite Octoluse Bisphosphate): 0.0717
Log2(fold change) PD (metabolite PD): 0.0223
Log2(fold change) PE (metabolite PE): 0.1349
Log2(fold change) PEE (metabolite PEE): 0.2438
Log2(fold change) PEEK (metabolite PEEK): 0.3424
Log2(fold change) PVNF (metabolite PVNF): 0.2854
Log2(fold change) Pyroglutamic acid (metabolite Pyroglutamic acid): -0.2488
Log2(fold change) Pyrophosphate (metabolite Pyrophosphate): 0.0000
Log2(fold change) Ribose-5-phosphate (metabolite Ribose-5-phosphate): 0.1278
Log2(fold change) S-adenosyl-L-homocysteine (metabolite S-adenosyl-L-homocysteine): -0.2617
Log2(fold change) S-adenosyl-L-methioninamine (metabolite S-adenosyl-L-methioninamine): 0.0000
Log2(fold change) S-adenosyl-L-methionine (metabolite S-adenosyl-L-methionine): 0.0000
Log2(fold change) S-methyl-5'-thioadenosine (metabolite S-methyl-5'-thioadenosine): 0.0070
Log2(fold change) SD (metabolite SD): 0.1296
Log2(fold change) SDL (metabolite SDL): 0.0391
Log2(fold change) SID (metabolite SID): 0.2783
Log2(fold change) Sedoheptulose bisphosphate (metabolite Sedoheptulose bisphosphate): 0.1433
Log2(fold change) Thiamine pyrophosphate (metabolite Thiamine pyrophosphate): 0.0526
Log2(fold changes) UDP-D-glucose (metabolite UDP-D-glucose, log2 fold change): 0.0961
Log2(fold changes) UDP-D-glucuronate (metabolite UDP-D-glucuronate, log2 fold change): 0.1278
Log2(fold changes) UDP-N-acetyl-glucosamine (metabolite UDP-N-acetyl-glucosamine, log2 fold change): 0.0189
Log2(fold changes) UDP (metabolite UDP, log2 fold change): -0.6136
Log2(fold changes) UMP (metabolite UMP, log2 fold change): -0.1186
Log2(fold changes) UTP (metabolite UTP, log2 fold change): 0.1051
Log2(fold changes) VD (metabolite VD, log2 fold change): 0.0754
Log2(fold changes) Xanthurenic acid (metabolite Xanthurenic acid, log2 fold change): 0.0000
Log2(fold changes) a-ketoglutarate (metabolite a-ketoglutarate, log2 fold change): 0.1610
Log2(fold changes) acetyl-CoA (metabolite acetyl-CoA, log2 fold change): 0.1670
Log2(fold changes) acetyl-aspartate (metabolite acetyl-aspartate, log2 fold change): 0.0000
Log2(fold changes) acetylphosphate (metabolite acetylphosphate, log2 fold change): 0.0000
Log2(fold changes) aconitate (metabolite aconitate, log2 fold change): 0.1208
Log2(fold changes) adenine (metabolite adenine, log2 fold change): 0.0000
Log2(fold changes) adenosine 5'-phosphosulfate (metabolite adenosine 5'-phosphosulfate, log2 fold change): 0.0000
Log2(fold changes) adenosine (metabolite adenosine, log2 fold change): 0.0000
Log2(fold changes) alanine/sarcosine (metabolite alanine/sarcosine, log2 fold change): -0.0537
Log2(fold changes) anthranilate (metabolite anthranilate, log2 fold change): 0.0000
Log2(fold changes) arginine (metabolite arginine, log2 fold change): 0.0159
Log2(fold changes) asparagine (metabolite asparagine, log2 fold change): 0.0139
Log2(fold changes) aspartate (metabolite aspartate, log2 fold change): -0.0605
Log2(fold changes) biotin (metabolite biotin, log2 fold change): 0.0000
Log2(fold changes) cCMP (metabolite cCMP, log2 fold change): 0.0520
Log2(fold changes) cGMP (metabolite cGMP, log2 fold change): 0.0000
Log2(fold changes) carnitine (metabolite carnitine, log2 fold change): 0.0000
Log2(fold changes) citrate/isocitrate (metabolite citrate/isocitrate, log2 fold change): -0.0500
Log2(fold change) of coenzyme A (metabolite coenzyme A): -0.1736
Log2(fold change) of cyclic-AMP (metabolite cyclic-AMP): -3.95e-5
Log2(fold change) of cytidine (metabolite cytidine): 0.0481
Log2(fold change) of dAMP (metabolite dAMP): -0.6907
Log2(fold change) of dATP (metabolite dATP): 0.1926
Log2(fold change) of dCDP (metabolite dCDP): -0.7164
Log2(fold change) of dCMP (metabolite dCMP): -0.1991
Log2(fold change) of dCTP (metabolite dCTP): -0.0054
Log2(fold change) of dGDP/ADP (metabolite dGDP/ADP): -0.3882
Log2(fold change) of dGMP/AMP (metabolite dGMP/AMP): -0.6721
Log2(fold change) of dGTP/ATP (metabolite dGTP/ATP): 0.1282
Log2(fold change) of dTDP (metabolite dTDP): -0.6082
Log2(fold change) of dTMP (metabolite dTMP): -0.8354
Log2(fold change) of dTTP (metabolite dTTP): 0.1193
Log2(fold change) of dUMP (metabolite dUMP): 0.0000
Log2(fold change) of dUTP (metabolite dUTP): 0.0000
Log2(fold change) of deoxyguanosine (metabolite deoxyguanosine): 0.0000
Log2(fold change) of deoxyinosine (metabolite deoxyinosine): 0.0000
Log2(fold change) of deoxyribose-phosphate (metabolite deoxyribose-phosphate): 0.0000
Log2(fold change) of deoxyuridine (metabolite deoxyuridine): 0.0000
Log2(fold change) of dihydroorotate (metabolite dihydroorotate): -0.0270
Log2(fold change) of folate (metabolite folate): -0.0482
Log2(fold change) of fructose-1-6-bisphosphate (metabolite fructose-1-6-bisphosphate): 0.2760
Log2(fold change) of fructose-6-phosphate (metabolite fructose-6-phosphate): 0.2447
Log2(fold change) of fumarate (metabolite fumarate): 0.1140
Log2(fold change) of glucono-lactone (metabolite glucono-lactone): 0.0480
Log2(fold change) of glucose-1/6-phosphate (metabolite glucose-1/6-phosphate): 0.0000
Log2(fold change) of glutamate (metabolite glutamate): 0.0377
Log2(fold change) of glutamine (metabolite glutamine): 0.0892
Log2(fold change) of glutathione (metabolite glutathione): -0.0422
Log2(fold change) glutathione disulfide (metabolite glutathione disulfide): -0.0039
Log2(fold change) glycerate (metabolite glycerate): 0.0000
Log2(fold change) guanine (metabolite guanine): -1.1501
Log2(fold change) guanosine (metabolite guanosine): 0.0000
Log2(fold change) histidine (metabolite histidine): 0.1439
Log2(fold change) homocysteic acid (metabolite homocysteic acid): 0.0000
Log2(fold change) hydroxyphenylpyruvate (metabolite hydroxyphenylpyruvate): 0.0000
Log2(fold change) hydroxyproline/Aminolevulinate (metabolite hydroxyproline/Aminolevulinate): 0.1631
Log2(fold change) hypoxanthine (metabolite hypoxanthine): 0.0000
Log2(fold change) indole (metabolite indole): 0.0000
Log2(fold change) inosine (metabolite inosine): -0.4099
Log2(fold change) isoleucine (metabolite isoleucine): 0.1976
Log2(fold change) lactate (metabolite lactate): -0.2436
Log2(fold change) leucine (metabolite leucine): 0.1923
Log2(fold change) lysine (metabolite lysine): 0.0742
Log2(fold change) malate (metabolite malate): 0.0333
Log2(fold change) maleic acid (metabolite maleic acid): 0.0474
Log2(fold change) methionine (metabolite methionine): 0.2831
Log2(fold change) myo-inositol (metabolite myo-inositol): -0.3601
Log2(fold change) nicotinamide mononucleotide (metabolite nicotinamide mononucleotide): 0.0144
Log2(fold change) nicotinate (metabolite nicotinate): -0.5500
Log2(fold change) ornithine (metabolite ornithine): 0.0000
Log2(fold change) orotate (metabolite orotate): -0.1816
Log2(fold change) orotidine-5'-phosphate (metabolite orotidine-5'-phosphate): -0.1754
Log2(fold change) oxaloacetate (metabolite oxaloacetate): 0.0000
Log2(fold change) p-aminobenzoate (metabolite p-aminobenzoate): 0.0000
Log2(fold change) p-hydroxybenzoate (metabolite p-hydroxybenzoate): 0.0000
Log2(fold change) pantothenate (metabolite pantothenate): 0.0000
Log2(fold change) phenylalanine (metabolite phenylalanine): 0.1566
Log2(fold change) phenylpyruvate (metabolite phenylpyruvate): 0.0000
Log2(fold change) phosphoenolpyruvate (metabolite phosphoenolpyruvate): 0.1381
Log2(fold change) prephenate (metabolite prephenate): 0.0000
Log2(fold change) proline (metabolite proline): -0.0640
Log2(fold change) pyridoxine (metabolite pyridoxine): -0.2953
Log2(fold change) pyruvate (metabolite pyruvate): -0.0949
Log2(fold change) riboflavin (metabolite riboflavin): 0.0784
Log2(fold change) ribose (metabolite ribose): 0.2671
Log2(fold change) ribose-phosphate (metabolite ribose-phosphate): 0.0683
Log2(fold change) ribulose-5-phosphate (metabolite ribulose-5-phosphate): 0.2669
Log2(fold change) serine (metabolite serine): 0.0398
Log2(fold change) sn-glycerol-3-phosphate (metabolite sn-glycerol-3-phosphate): 0.2727
Log2(fold change) succinate/Methylmalonic acid (metabolite succinate/Methylmalonic acid): 0.1812
Log2(fold change) succinyl-CoA/methylmalonyl-CoA (metabolite succinyl-CoA/methylmalonyl-CoA): 0.0000
Log2(fold change) taurine (metabolite taurine): 0.1018
Log2(fold change) thiamine (metabolite thiamine): -0.0320
Log2(fold change) threonine/homoserine (metabolite threonine/homoserine): -0.0093
Log2(fold change) thymidine (metabolite thymidine): 0.0000
Log2(fold changes) thymine (metabolite thymine, log2 fold change): 0.0000
Log2(fold changes) trehalose-6-Phosphate (metabolite trehalose-6-Phosphate, log2 fold change): 0.0000
Log2(fold changes) tryptophan (metabolite tryptophan, log2 fold change): 0.2627
Log2(fold changes) tyrosine (metabolite tyrosine, log2 fold change): 0.1902
Log2(fold changes) uridine (metabolite uridine, log2 fold change): 0.0000
Log2(fold changes) valine (metabolite valine, log2 fold change): 0.0658
Log2(fold changes) xanthine (metabolite xanthine, log2 fold change): -0.8439
Log2(fold changes) xanthosine-5-phosphate (metabolite xanthosine-5-phosphate, log2 fold change): 0.0356
Log2(fold changes) xanthosine (metabolite xanthosine, log2 fold change): 0.2527
Log2(fold changes) xylose (metabolite xylose, log2 fold change): 0.0000
